What was measured:
[1] = system: release of 5-HT from the proximal gut; assay: 5-HT released by the proximal gut (ELISA of mid-gut fistula output); assay type: in vivo, dog; details: 5-HT 0.05 mg/kg/h to distal gut; control 156 μg; n=1
Description: To test the hypothesis that fat in the distal gut causes the release of 5-HT in the proximal gut, the amount of 5-HT collected from the output of the mid-gut fistula (proximal gut 5-HT) over a 90-minute period of buffer perfusion through both the duodenal and mid-gut fistulas (2 mL/min); buffer (control) or oleate (60 mM) was administered to the distal gut (n=1). The amount of 5-HT was determined using an ELISA kit specific for 5-HT (Sigma; Graham-Smith, D. G., The carcinoid syndrome, In: Topics in Gastroenterology, Truclove, S. C. and Lee, E. (eds.), Blackwells, London, p. 275 [1977]; Singh, S. M. et al., Concentrations of serotonin in plasma-a test for appendicitis?, Clin. Chem. 34:2572-2574 [1988]). The amount of 5-HT released by the proximal gut increased in response to fat in the distal gut from 100 μg in the control (buffer minus oleate) to 338 μg (buffer plus oleate to distal gut), showing that 5-HT is released in the proximal gut in response to fat in the distal gut. Thus, the release of 5-HT by the proximal gut can serve as a relayed signal for fat in the distal gut. The relayed release of 5-HT in the proximal gut in response to fat in the distal gut is consistent with Example 14(2), showing that slowing of intestinal transit by fat depends on an efferent 5-HT-mediated pathway to the proximal gut.
To test the hypothesis that 5-HT in the distal gut causes the release of 5-HT in the proximal gut, the amount of 5-HT collected from the output at the mid-gut fistula (Proximal gut 5-HT) over a 90-minute period of buffer perfusion through both the duodenal and mid-gut fistulas (2 mL/min each) was compared in the presence or absence of 5-HT (0.05 mg/kg/h) administered to the distal gut (n=1). 5-HT concentration was determined using an ELISA kit specific for 5-HT (Sigma). The amount of 5-HT released by the proximal gut increased from 156 μg in the control (minus distal 5-HT) to 450 μg (plus 5-HT to distal gut), implying that 5-HT is released by the proximal gut in response to 5-HT in the distal gut. Thus, the release of 5-HT by the proximal gut can serve as a relayed signal for distal gut 5-HT. This relayed release of 5-HT in the proximal gut explains the results of Example 14(6) showing that the slowing of intestinal transit by distal gut 5-HT was abolished by ondansetron in the proximal gut (efferent limb of response) as well as in the distal gut (afferent limb of response).
To test the hypothesis that the proximal gut releases 5-HT in response to lipid in the distal gut, we compared the amount of 5-HT in the output of the midgut fistula (i.e., proximal gut 5-HT) with buffered saline (control) or oleate in the distal gut. The amount of 5-HT collected over 90 min was measured using a 5-HT-specific ELISA test kit, as described herein above. Four dogs were tested.
The amount of 5-HT released from the proximal gut in response to intravenous PYY or buffered saline (Control) during buffer perfusion (2 mL/min over 90 minutes) through both the duodenal and mid-gut fistulas was measured to test the hypothesis that intravenous PYY (0.8 mg/kg/h) causes the release of 5-HT in the proximal gut. 5-HT was measured as in Example 14(9) above. The amount of 5-HT released by the proximal gut increased from 140.1 μg (Control) to 463.1 μg in response to intravenous PYY.

[2] = system: intestinal transit; assay: Intestinal transit in multi-fistulated dogs, cumulative % recovery of 99mTc-DTPA; assay type: in vivo, dog; details: for Effect of 5-HT delivered to distal gut on intestinal transit time: n = 2 dogs
From the text: The experiments described below are based on a previously described chronic multi-fistulated dog model, employing surgically fistulated male or female mongrel dogs weighing about 25 kg each. (Lin, H. C. et al., Inhibition of gastric emptying by glucose depends on length of intestine exposed to nutrient, Am. J. Physiol. 256:G404-G411 [1989]). The small intestines of the dogs were each about 300 cm long from the pylorus to the ileal-cecal valve. The duodenal fistula was situated 15 cm from the pylorus; the mid-gut fistula was situated 160 cm from the pylorus. Occluding Foley catheters (balloon catheters that are inflated to produce a water-tight seal with the lumenal surface) were placed into the distal limb of a duodenal fistula and a mid-gut fistula, fat or other test agents were administered lumenally to the thus compartmentalized Aproximal≅ section of the gut, i.e., between the fistulas, or to the compartmentalized Adistal≅ section of the gut, i.e., beyond the mid-gut fistula. Perfusate was pumped into a test section through the catheter at a rate of 2 mL/minute. Test agents were administered along with buffer perfusate, but some test agents were administered intravenously, where specifically noted.
Intestinal transit measurements were made by tracking the movement of a liquid marker across the approximately 150 cm intestinal test segment by delivering about 20 μCi ^99mTc chelated to diethyltriamine pentaacetic acid (DTPA)(Cunningham, K. M. et al., Use of technicium-99m (V)thiocyanate to measure gastric emptying of fat, J. Nucl. Med. 32:878-881 [1991]) as a bolus into the test segment after 60 minutes of a 90-minute perfusion. The output from the mid-gut fistula was collected every 5 min thereafter for 30 minutes, which period is illustrated in FIGS. 9-23. Using a matched dose of ^99mTc to represent the original radioactivity (Johansson, C., Studies of gastrointestinal interactions, Scand. J. Gastroenterol. 9(Suppl 28):1-60 [1974]; Zierler, K., A simplified explanation of the theory of indicator dilution for measurement of fluid flow and volume and other distributive phenomena, Bull. John Hopkins 103:199-217 [1958]), the radioactivity delivered into the animal as well as the radioactivity of the recovered fistula output were all measured using a gamma well counter. After correcting all counts to time zero, intestinal transit was calculated as the cumulative percent recovery of the delivered ^99mTc-DTPA. This method has been well validated over the years and appreciated for its advantage of minimal inadvertent marker loss. […] There was a very high level of marker recovery, with 90% of the marker recovered by 30 minutes and 98% of the marker recovered by 45 minutes.

[3] = system: SIBO; assay: Comparison of antibiotic regimes for eradicating SIBO, follow-up lactulose breath hydrogen test (LBHT); assay type: in vivo, human; details: for % Patients with SIBO Eradicated: follow-up LBHT
Description: Subjects were tested after an overnight fast. […] Each breath sample was then analyzed for hydrogen content with a gas chromatograph (Quintron Model DP, Quintron Instrument Co., Division of E.F. Brewer Co, Menomonee Falls, Wis. 53051), standardized using a QuinGas standard as instructed by the manufacturer. Hydrogen peaks were plotted before and after an antimicrobial treatment regimen for comparison. The normal range for the second hydrogen peak was 0 to 20 ppm. Subjects referred to the Cedars-Sinai GI Motility Program for a lactulose breath hydrogen test (LBHT) to assess SIBO were entered into a database. Those that tested positive for SIBO were given antibiotic treatment by their referring physician and in some cases, returned for a follow-up LBHT to assess eradication of SIBO. During the follow-up LBHT, subjects were asked which antibiotic they were given to treat their SIBO. The eradication rate of each antibiotic was evaluated. Of the 771 subjects in the database, 561 (73%) tested positive for SIBO. […] (See Table 1 below). […] None of the commonly used antibiotics was universally successful in eradicating overgrowth.

[4] = system: SIBO; assay: Antibiotic treatment of Crohn's disease subjects with SIBO; assay type: in vivo, human; details: Crohn's subjects; pooled over the named antibiotics
Description: To correct for selection bias, a pilot study was conducted to determine the incidence of SIBO in subjects who had received a suspected diagnosis of Crohn's disease at Cedars-Sinai Medical Center=s IBD Center within the preceding three months.

[5] = system: ileal brake; details: rats, Brown et al. 1993, cited from earlier work

NCCc1c[nH]c2ccc(O)cc12 [5-HT, 5-hydroxytryptamine]
amount of 5-HT released by the proximal gut [1]: 450 µg | Effect of 5-HT delivered to distal gut on intestinal transit time ([2]; 0.033 mg/kg/h × 90 min, 0 dose 68.5 ± 1.0): 69.6 ± 4.2 min | Effect of 5-HT delivered to distal gut on intestinal transit time ([2]; 0.05 mg/kg/h × 90 min): 33.5 ± 1.5 min | Effect of 5-HT delivered to distal gut on intestinal transit time ([2]; 0.066 mg/kg/h × 90 min): 15.2 ± 0.5 min | marker recovery ([2]; 0.1 mg/kg/h 5-HT into distal gut, Saline-Dist 76.1±1.3%): 35.2±2.3% | marker recovery ([2]; 0.1 mg/kg/h 5-HT into proximal gut, Saline-Prox 85.0±7.3%, four dogs): 20.1±4.5% | Effect of 5-HT delivered to distal gut on intestinal transit time ([2]; 0.1 mg/kg/h × 90 min): 16.1 ± 4.9 min | Effect of 5-HT delivered to distal gut on intestinal transit time ([2]; 0.3 mg/kg/h × 90 min): 73.8 ± 0.6 min | marker recovery ([2]; 5-HT 0.05 mg/kg/h in distal gut, Buffer Control 79.4±4.1%): 37.0±1.8% | marker recovery ([2]; 5-HT 0.05 mg/kg/h to distal gut, Buffer Control 83.3±3.3%, n=2): 36.1±2.3% | proximal intestinal transit, cumulative % marker recovered ([2]; 5-HT 0.1 mg/kg/h distal gut, Saline (i.v.)): 28.27 ± 5.03% | marker recovery ([2]; 5-HT 0.1 mg/kg/h to distal gut, buffer control 76.1±4.7%, four dogs): 35.2±2.2% | marker recovery ([2]; 5-HT in distal gut, 2 mg (0.033 mg/kg/h) over 90 min, buffer 81.2%, n=1): 73.8% | marker recovery ([2]; 5-HT in distal gut, 3 mg (0.05 mg/kg/h), n=1): 53.1% | marker recovery ([2]; 5-HT in distal gut, 4 mg (0.066 mg/kg/h), n=1): 11.6% | marker recovery ([2]; 5-HT in proximal gut, 0.033 mg/kg/h): not significantly different from the buffer control | marker recovery ([2]; 5-HT in proximal gut, 0.05 mg/kg/h): 33.2±14.0% | marker recovery ([2]; 5-HT in proximal gut, 0.066 mg/kg/h, buffer 75.0±4.4%, four dogs): 16.9±+3.7%

O=C(O)c1cn(C2CC2)c2cc(N3CCNCC3)c(F)cc2c1=O [Ciprofloxacin, ciprofloxacin]
% Patients with SIBO Eradicated [3]: 50% | improvement in symptoms, breath test negative after antibiotic [4]: 69±27%

Cc1ncc([N+](=O)[O-])n1CCO [Flagyl, metronidazole]
success in eradicating SIBO, comparison of antibiotics ([3]; 105 subjects with follow-up LBHT): relatively poor choice by itself | % Patients with SIBO Eradicated [3]: 25% | improvement in symptoms, breath test negative after antibiotic [4]: 69±27% | improvement in symptoms, subjects remaining positive on breath test after antibiotic [4]: 20±0%

CN1C2CCCC1CC(NC(=O)c1nn(C)c3ccccc13)C2 (centres unmarked) [granisetron]
ileal brake induced by ileal infusion of lipid ([5]; subcutaneous administration): abolished the ileal brake | intestinal transit of a baked bean meal ([5]; subcutaneous administration): delayed

C=CCN1CC[C@]23c4c5ccc(O)c4O[C@H]2C(=O)CC[C@@]3(O)[C@H]1C5 [naloxone]
ileal brake [5]: abolish the ileal brake | marker recovery ([2]; 60 mM oleate in proximal gut with 3 mg naloxone): 41.0±5.2% | marker recovery ([2]; 60 mM oleate in proximal gut with 6 mg naloxone): 62.8±8.2% | marker recovery ([2]; 60 mM oleate in proximal gut with 12 mg naloxone): 60.6±6.1% | marker recovery ([2]; buffer in proximal gut with 6 mg naloxone, no fat, without naloxone 81.3±6.1%, n=3): 88.0±1.3% | marker recovery ([2]; distal gut 5-HT + naloxone 6 mg in proximal gut): 90.1±4.6% | marker recovery ([2]; ileal brake + 6 mg naloxone to distal gut): 29.4±5.4% | marker recovery ([2]; ileal brake + 6 mg naloxone to proximal gut): 76.2±5.2%

NC[C@H](O)c1ccc(O)c(O)c1 [norepinephrine]
Transit Across Proximal Gut (Cumulative % Marker Recovered) ([2]; Buffer + NE i.v. 50 mg/30 ml/1.5 h, Buffer Control 68.5 ± 5.0, five dogs): 16.3 ± 3.4^ab % | marker recovery ([2]; intravenous norepinephrine 0.12 μg/kg/h + normal saline, Buffer Control 76.9%, n=2): 13.3%

CC(C)NCC(O)COc1cccc2ccccc12 (centres unmarked) [propranolol]
proximal intestinal transit, cumulative % marker recovered ([2]; 60 mM oleate distal gut + Propranolol (i.v.) 50 μg/kg/h): 66.42 ± 8.26% | proximal intestinal transit, cumulative % marker recovered ([2]; 5-HT distal gut + Propranolol (i.v.) 50 μg/kg/h): 63.85 ± 8.76% | marker recovery ([2]; distal gut 5-HT + intravenous propranolol 50 μg/kg/h): 77.7±7.6% | marker recovery ([2]; distal gut oleate + intravenous propranolol 50 μg/kg/h): 72.1±4.7% | marker recovery ([2]; intravenous PYY + intravenous propranolol 50 μg/kg/h): 66.3±3.1%
